{"source": "patent US10093678B2", "about": "“Azaspiro derivatives as TRPM8 antagonists” (RaQualia Pharma Inc., priority 2014, dated 2018)", "note": "Structures can show the parent of a compound that is named as a salt."}
{"molecular_target": "T1, human TRPM8 (Homo sapiens, UniProt Q7Z2W7)", "T1 construct": "expressed in transfected cells; host or cells: HEK293", "T1 sequence (Q7Z2W7 whole entry)": "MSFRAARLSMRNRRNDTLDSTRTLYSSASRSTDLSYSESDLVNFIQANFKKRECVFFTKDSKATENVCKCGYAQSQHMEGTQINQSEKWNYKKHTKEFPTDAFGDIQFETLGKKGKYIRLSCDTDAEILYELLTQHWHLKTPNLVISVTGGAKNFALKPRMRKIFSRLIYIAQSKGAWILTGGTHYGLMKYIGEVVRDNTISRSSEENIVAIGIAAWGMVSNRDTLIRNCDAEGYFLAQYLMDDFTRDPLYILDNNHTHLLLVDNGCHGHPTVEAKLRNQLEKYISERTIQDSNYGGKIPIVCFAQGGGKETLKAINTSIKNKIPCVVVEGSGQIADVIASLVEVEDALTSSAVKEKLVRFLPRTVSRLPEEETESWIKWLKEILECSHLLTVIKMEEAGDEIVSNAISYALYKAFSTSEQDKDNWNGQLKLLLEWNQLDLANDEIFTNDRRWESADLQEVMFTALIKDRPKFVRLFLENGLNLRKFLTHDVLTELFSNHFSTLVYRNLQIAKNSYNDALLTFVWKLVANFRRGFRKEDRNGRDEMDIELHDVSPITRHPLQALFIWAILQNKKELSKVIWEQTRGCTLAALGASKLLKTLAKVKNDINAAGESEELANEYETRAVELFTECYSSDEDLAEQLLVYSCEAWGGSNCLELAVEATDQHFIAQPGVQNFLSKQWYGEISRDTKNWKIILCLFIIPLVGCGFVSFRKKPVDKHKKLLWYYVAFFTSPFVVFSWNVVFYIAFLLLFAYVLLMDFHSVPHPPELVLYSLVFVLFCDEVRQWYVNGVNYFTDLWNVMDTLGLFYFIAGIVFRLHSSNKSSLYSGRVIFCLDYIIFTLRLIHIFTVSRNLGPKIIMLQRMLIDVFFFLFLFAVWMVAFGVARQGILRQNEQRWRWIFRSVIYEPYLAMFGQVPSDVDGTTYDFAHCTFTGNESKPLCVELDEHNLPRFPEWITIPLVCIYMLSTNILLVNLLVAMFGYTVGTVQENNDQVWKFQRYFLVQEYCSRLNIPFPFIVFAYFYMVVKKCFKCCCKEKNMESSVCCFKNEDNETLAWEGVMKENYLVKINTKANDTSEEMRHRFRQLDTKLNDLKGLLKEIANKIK", "assay": "Menthol-induced Ca2+ influx in HEK293 cells stably expressing human TRPM8", "format": "cell-based", "settings": "30 microM menthol-induced Ca2+ influx, read-out: IC50 against TRPM8", "how_it_was_run": "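HEK293 cells stably expressing human TRPM8 were loaded with Fluo4-AM for 1 h at room temperature, preincubated 5 min with compound, then challenged with 30 microM menthol. Calcium rise was read by FDSS imaging. IC50 came from 11-point curves using duplicate-well means.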", "units": {"IC50": "nM"}}
{"smiles": "Cc1c(C(=O)CN2C(=O)NC3(CCC(F)(F)CC3)C2=O)cn(C)c1-c1cccc2ccncc12", "note": "[Example 16-27]", "IC50": "< 100"}
{"smiles": "Cc1cc(C(=O)CN2C(=O)NC3(CCC(F)(F)CC3)C2=O)n(C)c1-c1cccc2[nH]ncc12", "note": "[Example 16-35]", "IC50": "< 500"}
{"smiles": "Cc1ncccc1-c1ccc(C(=O)CN2C(=O)NC3(CCCCC3)C2=O)cn1", "note": "[Example 9-7]", "IC50": "< 100"}
{"smiles": "Nc1ccnnc1-c1ccc(C(=O)CN2C(=O)NC3(CCC(F)(F)CC3)C2=O)cc1F", "note": "[Example 8-6]", "IC50": "< 500"}
{"smiles": "O=C(CN1C(=O)NC2(CCC(F)(F)CC2)C1=O)c1ccc(-n2cnc3ncncc32)cc1", "note": "[Example 19-35]", "IC50": "< 500"}
{"smiles": "O=C(CN1C(=O)NC2(CCC(F)(F)CC2)C1=O)c1ccc(N2C(=O)Cc3ccccc32)cc1", "note": "[Example 19-26]", "IC50": "< 100"}
{"smiles": "Cc1ccncc1-c1ccc(C(=O)CN2C(=O)NC3(CCCCC3)C2=O)cc1", "note": "[Example 7-2]", "IC50": "< 100"}
{"smiles": "Cc1nc(C(=O)CN2C(=O)NC3(CCC(F)(F)CC3)C2=O)sc1-c1cccc(C#N)c1", "note": "[Example 18-3]", "IC50": "< 100"}
{"smiles": "Cn1c(C(=O)CN2C(=O)NC3(CCC(F)(F)CC3)C2=O)cnc1-c1ccccc1", "note": "[Example 4-11]", "IC50": "< 500"}
{"smiles": "O=C(CN1C(=O)NC2(CCC(F)(F)CC2)C1=O)c1ccc(-c2cccc(O)c2)cc1", "note": "[Example 6-35]", "IC50": "< 100"}
{"smiles": "Cn1c(-c2cccnc2)cnc1C(=O)CN1C(=O)NC2(CCC(F)(F)CC2)C1=O", "note": "[Example 17-15]", "IC50": "< 500"}
{"smiles": "O=C(CN1C(=O)NC2(CCC(F)(F)CC2)C1=O)c1ccc(-c2cccc3c2C(O)CC3)cc1", "note": "(stereo not shown) [Example 6-50]", "IC50": "< 500"}
{"smiles": "NCc1ccccc1-c1ccc(C(=O)CN2C(=O)NC3(CCC(F)(F)CC3)C2=O)cc1", "note": "[Example 6-55, 3-(2-(2′-(aminomethyl)-[1,1′-biphenyl]-4-yl)-2-oxoethyl)-8,8-difluoro-1,3-diazaspiro[4.5]decane-2,4-dione hydrochloride]", "IC50": "< 100"}
{"smiles": "O=C(CN1C(=O)NC2(CCC(F)(F)CC2)C1=O)c1ccc(-c2nccc3cn[nH]c23)cc1", "note": "[Example 6-62]", "IC50": "< 500"}
{"smiles": "O=C(CN1C(=O)NC2(CCC(F)(F)CC2)C1=O)c1ccc(-c2ccccc2O)cc1", "note": "[Example 6-19]", "IC50": "< 100"}
{"smiles": "COc1cc(C(=O)CN2C(=O)NC3(CCC(F)(F)CC3)C2=O)ccc1-c1ccccc1C#N", "note": "[Example 5-5]", "IC50": "< 100"}
{"smiles": "Cc1c(C(=O)CN2C(=O)NC3(CCC(F)(F)CC3)C2=O)cn(C)c1-c1ccccc1CO", "note": "[Example 16-34]", "IC50": "< 500"}
{"smiles": "Cc1nc(C(=O)CN2C(=O)NC3(CCC(F)(F)CC3)C2=O)n(C)c1-c1cccc(F)c1", "note": "[Example 17-6]", "IC50": "< 10"}
{"smiles": "O=C(CN1C(=O)NC2(CCC(F)(F)CC2)C1=O)c1ccc(-c2cccc3ccncc23)nc1", "note": "[Example 9-12]", "IC50": "< 10"}
{"smiles": "N#Cc1cnccc1-c1ccc(C(=O)CN2C(=O)NC3(CCC(F)(F)CC3)C2=O)cc1", "note": "[Example 6-98]", "IC50": "< 100"}
{"smiles": "Cc1sc(C(=O)CN2C(=O)NC3(CCC(F)(F)CC3)C2=O)c(C)c1-c1cccc(CO)c1", "note": "[Example 15-12]", "IC50": "< 500"}
{"smiles": "O=C(CN1C(=O)NC2(CCC(F)(F)CC2)C1=O)c1ccc(-c2nccnc2CO)cc1F", "note": "[Example 8-9]", "IC50": "< 100"}
{"smiles": "O=C(CN1C(=O)NC2(CCC(F)(F)CC2)C1=O)c1ccc(-n2cnc3cccnc32)cc1", "note": "[Example 5-9]", "IC50": "< 10"}
{"smiles": "Cc1cc(C(=O)CN2C(=O)NC3(CCC(F)(F)CC3)C2=O)ccc1-c1cccc(F)c1", "note": "[Example 13-17]", "IC50": "< 100"}
{"smiles": "Cc1cncc(-n2c(C)cc(C(=O)CN3C(=O)NC4(CCC(F)(F)CC4)C3=O)c2C)n1", "note": "[Example 3-2]", "IC50": "< 100"}
{"smiles": "Cc1nc(C(=O)CN2C(=O)NC3(CCC(F)(F)CC3)C2=O)sc1-c1ccccc1", "note": "[Example 4-5]", "IC50": "< 100"}
{"smiles": "Cc1ccc2nc(C(F)F)n(-c3ccc(C(=O)CN4C(=O)NC5(CCC(F)(F)CC5)C4=O)cc3)c2n1", "note": "[Example 24-5]", "IC50": "< 10"}
{"smiles": "CN(c1ccccn1)c1ccc(C(=O)CN2C(=O)NC3(CCCCC3)C2=O)cn1", "note": "[Example 19-2]", "IC50": "< 100"}
{"smiles": "CC(O)c1ccccc1-c1ccc(C(=O)CN2C(=O)NC3(CCC(F)(F)CC3)C2=O)cc1", "note": "(stereo not shown) [Example 6-40]", "IC50": "< 100"}
{"smiles": "O=C(CN1C(=O)NC2(CCC(F)(F)CC2)C1=O)c1ccc(-c2ccnc3ccccc23)nc1", "note": "[Example 9-18]", "IC50": "< 100"}
{"smiles": "Cn1c(C(=O)CN2C(=O)NC3(CCC(F)(F)CC3)C2=O)ccc1-c1cccnc1", "note": "[Example 16-3]", "IC50": "< 100"}
{"smiles": "O=C(CN1C(=O)NC2(CCC(F)(F)CC2)C1=O)c1ccc(-c2cncc3ccccc23)nc1", "note": "[Example 9-16]", "IC50": "< 100"}
{"smiles": "Cc1c(C(=O)CN2C(=O)NC3(CCCCC3)C2=O)nn(C)c1-c1cccnc1", "note": "[Example 4-8]", "IC50": "< 500"}
{"smiles": "Cc1cccc(-n2c(C)cc(C(=O)CN3C(=O)NC4(CCC(F)(F)CC4)C3=O)c2C)n1", "note": "[Example 3-13]", "IC50": "< 100"}
{"smiles": "Cc1cccc(-c2cnc(C(=O)CN3C(=O)NC4(CCC(F)(F)CC4)C3=O)n2C)c1", "note": "[Example 17-14]", "IC50": "< 500"}
{"smiles": "Cc1cc(C(=O)CN2C(=O)NC3(CCCCC3)C2=O)cnc1-c1ccccc1", "note": "[Example 11-2]", "IC50": "< 100"}
{"smiles": "Cc1cc(C(=O)CN2C(=O)NC3(CCC(F)(F)CC3)C2=O)c(C)n1-c1nnn(C)n1", "note": "[Example 3-21]", "IC50": "< 500"}
{"smiles": "N#Cc1nccnc1-c1ccc(C(=O)CN2CC3(CCC(F)(F)CC3)OC2=O)cc1", "note": "[Example 7-15]", "IC50": "< 500"}
{"smiles": "CCN(c1ccccc1)c1ccc(C(=O)CN2C(=O)NC3(CCCCC3)C2=O)cn1", "note": "[Example 19-3]", "IC50": "< 100"}
{"smiles": "O=C(CN1C(=O)NC2(CCCCC2)C1=O)c1ccc(Oc2ccccn2)cc1", "note": "[Example 5-18]", "IC50": "< 100"}
{"smiles": "O=C(CN1C(=O)NC2(CCC(F)(F)CC2)C1=O)c1ccc(-c2cccnc2)cc1", "note": "[Example 13-48]", "IC50": "< 100"}
{"smiles": "Cc1cc(C(=O)CN2C(=O)NC3(CCC(F)(F)CC3)C2=O)ccc1-c1cncc(F)c1", "note": "[Example 13-8]", "IC50": "< 100"}
{"smiles": "Cn1c(-c2ccccc2)cnc1C(=O)CN1C(=O)NC2(CCC(F)(F)CC2)C1=O", "note": "[Example 4-4]", "IC50": "< 100"}
{"smiles": "Cc1cc(C(=O)CN2C(=O)NC3(CCC(F)(F)CC3)C2=O)n(C)c1-c1cncc(F)c1", "note": "[Example 16-21]", "IC50": "< 100"}
{"smiles": "O=C(CN1C(=O)NC2(CCC(F)(F)CC2)C1=O)c1ccc(Oc2cncnc2)cc1", "note": "[Example 21-15]", "IC50": "< 500"}
{"smiles": "O=C(CN1C(=O)NC2(CCC(F)(F)CC2)C1=O)c1ccc(-n2c(=O)oc3ccccc32)nc1", "note": "[Example 19-14]", "IC50": "< 10"}
{"smiles": "NC(=O)c1ccccc1-c1ccc(C(=O)CN2C(=O)NC3(CCC(F)(F)CC3)C2=O)cc1", "note": "[Example 6-99]", "IC50": "< 500"}
{"smiles": "Cc1cnc(C)c(-c2ccc(C(=O)CN3C(=O)NC4(CCC(F)(F)CC4)C3=O)cc2)n1", "note": "[Example 6-7]", "IC50": "< 10"}
{"smiles": "N#Cc1cccc(-c2ccc(C(=O)CN3C(=O)NC4(CCCCC4)C3=O)cc2)n1", "note": "[Example 7-5]", "IC50": "< 100"}
{"smiles": "O=C(CN1C(=O)NC2(CCC(F)(F)CC2)C1=O)c1ccc(-c2ncn3ccccc23)cc1", "note": "[Example 6-64]", "IC50": "< 500"}
{"smiles": "Cc1cc(C(=O)CN2C(=O)NC3(CCC(F)(F)CC3)C2=O)sc1-c1cnccc1CO", "note": "[Example 14-6]", "IC50": "< 100"}
{"smiles": "O=C(CN1C(=O)NC2(CCC(F)(F)CC2)C1=O)c1ccc(-n2c(=O)[nH]c3cccnc32)cc1", "note": "[Example 23-1, 8,8-difluoro-3-(2-oxo-2-(4-(2-oxo-1H-imidazo[4,5-b]pyridin-3(2H)-yl)phenyl)ethyl)-1,3-diazaspiro[4.5]decane-2,4-dione]", "IC50": "< 100"}
